Reference: patent US12370143B2, “Compound or salt thereof and lipid particles” (FUJIFILM Corporation, priority 2018, dated 2025)

Tests used:
[1] = Encapsulation rate of siRNA in nucleic acid lipid particles (Luc2-siRNA); format: physicochemical; conditions: compound/DSPC/cholesterol/DMG-PEG2000 50/10/38.5/1.5
Summary of the method: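 Encapsulation rate was calculated as (total − outer-phase siRNA)/total ×100. Total siRNA was quantified spectrophotometrically after lipid-dissolving ethanol precipitation, and unencapsulated siRNA by RiboGreen in TE (ex 485/em 535 nm). The particles were test lipid/DSPC/cholesterol/DMG-PEG2000 at 50/10/38.5/1.5, formed by microfluidic mixing with Luc2-siRNA at pH 4 and dialyzed against PBS.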

[2] = test system: DMS273 cells constantly expressing Luc; assay: Target reporter protein (Luc) knockdown in cell, reporter protein assay; format: cell-based; conditions: Homo sapiens, DMS-273; Luc2-siRNA lipid particles using the compound; siRNA 0.1 to 100 nmol/L; concentration at which Luc expression is knocked down to 50%; read-out: IC50
Summary of the method: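 Nucleic acid lipid particles added at final 0.1 to 100 nmol/L to DMS273 human SCLC cells stably expressing Luc2, 24 hr exposure then 24 hr further culture after medium change. Luc quantified by Steady Glo luminescence after viable cell count; knockdown efficiency calculated and IC50 taken as concentration giving 50% Luc reduction.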

[3] = Particle size of nucleic acid lipid particles (FVII-siRNA); format: physicochemical
Procedure: The compounds described in Table 2, L-α-distearoylphosphatidylcholine (trade name: COATSOME® MC-8080; NOF corporation), cholesterol (trade name: Choesterol HP; NIPPON FINE CHEMICAL CO., LTD.), and 1,2-dimyristoyl-rac-glycero-3-(methylpolyoxyethylene 2000) (hereinafter, called DMG-PEG2000) (trade name: SUNBRIGHT® GM-020; NOF corporation) were dissolved in ethanol at a molar ratio of 50/10/38.5/1.5 such that the total lipid concentration became 20 mmol/L, thereby obtaining an oil phase.
An aqueous nucleic acid solution obtained by dissolving 5 mg of Luc2-siRNA having the sequence described in Biomacromolecules (2013) 14, p. 3905 in 1 mL of sterile water was diluted with 10 mmol/L acetate buffer having a pH 4 such that the nucleic acid concentration became 19.7 μmol/L, thereby obtaining a water phase. Then, the water phase and the oil phase were mixed together by a micromixer (see JP5288254B) using a syringe pump such that the volume ratio of water phase:oil phase became 3:1 (final ratio of siRNA/lipid=339 (mol/mol)), and the mixed solution was diluted 2× with PBS, thereby obtaining a dispersion liquid of nucleic acid lipid particles. The dispersion liquid was dialyzed (Slide-A-Lyzer G2, MWCO: 10 kD, Thermo Fisher Scientific) using a phosphate buffered saline such that ethanol was removed, thereby obtaining nucleic acid lipid particles.
The particle size of the nucleic acid lipid particles was measured by the same method as that in <Preparation of lipid particles>.
(§1) The Factor VII (FVII) protein was measured according to the method described in Nature Biotechnology (2010) 28, 172-176. C57BL6/J mice were randomly grouped (n=3). A dispersion liquid of nucleic acid lipid particles was prepared by the same method as that in <Preparation of nucleic acid lipid particles>, except that FVII-siRNA having the sequence described in Molecular Therapy (2009) 17, p. 878 was used instead of Luc-siRNA. The dispersion liquid was administered to the caudal vein of the mice at a dosage of 0.1 mg/kg. For comparison, PBS at the same volume was administered to the caudal vein of the mice. Twenty four hours after the administration, blood was collected from the caudal vena cava, thereby obtaining plasma. The amount of FVII protein was quantified using the obtained plasma and a Biophen FVII assay kit (Aniara).

[4] = Particle size of nucleic acid lipid particles (Luc2-siRNA); format: physicochemical; conditions: compound/DSPC/cholesterol/DMG-PEG2000 50/10/38.5/1.5
Summary of the method: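 Particle size was read by ELS-Z2 light scattering on nucleic acid lipid particles after dialysis against PBS. These were made by micromixing Luc2-siRNA (19.7 μmol/L, pH 4 acetate) with ethanolic lipids (test lipid/DSPC/cholesterol/DMG-PEG2000 50/10/38.5/1.5, 20 mmol/L) at 3:1 water:oil, siRNA/lipid 339 mol/mol.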

[5] = test system: Factor VII (FVII) protein; assay: Measurement of Factor VII (FVII) protein in mouse plasma after FVII-siRNA lipid particles; format: in vivo, C57BL6/J mice; conditions: 0.1 mg/kg caudal vein, plasma 24 hours after administration, PBS group = 100%
Summary of the method: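 C57BL6/J mice (n=3) received FVII-siRNA nucleic acid lipid particles at 0.1 mg/kg into the tail vein; controls got PBS. Each value is the percentage of the PBS-group FVII level.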

[6] = Nucleic acid encapsulation rate of nucleic acid lipid particles (FVII-siRNA); format: physicochemical
Procedure: A 3 mol/L aqueous sodium acetate solution (30 μL) and 9 μL of glycogen were added to 60 μL of the lipid particles retaining nucleic acids, and then 1.5 mL of ethanol was added thereto such that only the nucleic acids were precipitated while the lipid was dissolved. Then, the supernatant was removed by centrifugation. After the precipitates were air-dried for 15 minutes or longer, water was added thereto such that the precipitates were redissolved, and the concentration thereof was measured using Nanodrop NF1000 (Thermo Fisher Scientific), thereby quantifying the total nucleic acid concentration.
The nucleic acid concentration was quantified using a Quant-iT RiboGreen RNA Assay Kit (Thermo Fisher Scientific) according to the protocol. First, a 20×TE buffer included in the above kit was diluted with water, thereby obtaining a 1×TE buffer. TE represents Tris/EDTA (ethylenediaminetetraacetic acid). In order to quantify only the nucleic acid in the outer water phase, the dispersion liquid of lipid particles retaining nucleic acids was diluted 10,000× with the 1×TE buffer.
The 10,000× diluted dispersion liquid of lipid particles (100 μL) was put in a 96-well plate, then 100 μL of a RiboGreen reagent (reagent included in the Quanti-iT Ribogreen RNA Assay Kit described above) diluted 2000× with the 1×TE buffer was added to a sample, and fluorescence (excitation wavelength: 485 nm, fluorescence wavelength: 535 nm) was measured using a plate reader Infinit EF200 (TECAN), thereby quantifying the nucleic acid concentration in the outer water phase.
By using the total nucleic acid concentration obtained through the above steps and the quantified nucleic acid concentration in the outer water phase, the nucleic acid encapsulation rate of the nucleic acid lipid particles was calculated according to the following Equation. Nucleic acid encapsulation rate (%)=(total nucleic acid concentration−nucleic acid concentration in outer water phase)/total nucleic acid concentration×100 The results are shown in Table 2.
as §1

Row | SMILES | Nucleic acid encapsulation rate [1] | IC50 [2] | Particle size (nm) [3] | Particle size (nm) [4] | Nucleic acid encapsulation rate [6] | Relative amount of FVII protein (%) [5]
1 | CCCCC/C=C\C/C=C\CCCCCCCCC(CCCCCCCC/C=C\C/C=C\CCCCC)OC(=O)OCCN(CCN(CC)CC)Cc1ccccc1 [Example 51, 2-(Benzyl(2-(diethylamino)ethyl)amino)ethyl((6Z,9Z,28Z,31Z)-heptatriaconta-6,9,28,31-tetraen-19-yl)carbonate] | 76% | 37 nM | 71 nm | 69 nm | 84% | 19%
2 | CCCCCCCCCC(=O)OCCN(CCOC(=O)OC(CCCCCC)CCCC(=O)OCC(CCCCCC)CCCCCCCC)CCN(CC)CC (centres unmarked) [Example 110, 2-Hexyldecyl 6-(2-(decanoyloxy)ethyl)-3-ethyl-12-hexyl-10-oxo-9,11-dioxa-3,6-diazahexadecan-16-oate] | 87% | 17 nM | 66.1 nm | 60.7 nm | 85% | 2%
3 | CCCCC/C=C\C/C=C\CCCCCCCCC(CCCCCCCC/C=C\C/C=C\CCCCC)OC(=O)OCCN(CC)CCN(CC)CC [Example 30, 2-((2-(Diethylamino)ethyl)(ethyl)amino)ethyl((6Z,9Z,28Z,31Z)-heptatriaconta-6,9,28,31-tetraen-19-yl)carbonate] | 78% | 24 nM | 73.6 nm | 69.8 nm | 88% | 5%
4 | CCCCCCCC(CCCCCCC)COC(=O)CCCCCCCCC(CCCCCC)OC(=O)OCCN(CCN(CC)CC)C(C)C (centres unmarked) [Example 133, 2-Heptylnonyl 3-ethyl-12-hexyl-6-isopropyl-10-oxo-9,11-dioxa-3,6-diazahenicosan-21-oate] | 78% |  | 75.8 nm | 75.8 nm | 78% | 16%
5 | CCCCCCCCCC(CCCCCCCCC)COC(=O)CCCC(CCCCCC)OC(=O)OCCN(CCN(CC)CC)C(C)C (centres unmarked) [Example 124, 2-Nonylundecyl 3-ethyl-12-hexyl-6-isopropyl-10-oxo-9,11-dioxa-3,6-diazahexadecan-16-oate] | 69% |  | 73.4 nm | 68.3 nm | 84% | 8%
6 | CCCCC/C=C\C/C=C\CCCCCCCCC(CCCCCCCC/C=C\C/C=C\CCCCC)OC(=O)OCCN(CCCC)CCN(C)C [Example 38, 2-(Butyl(2-(dimethylamino)ethyl)amino)ethyl((6Z,9Z,28Z,31Z)-heptatriaconta-6,9,28,31-tetraen-19-yl)carbonate] | 87% |  | 67.9 nm | 94.2 nm | 100% | 16%

Now from value to compound, other results behind:

Row | Nucleic acid encapsulation rate [1] | IC50 [2] | Particle size (nm) [3] | Particle size (nm) [4] | Nucleic acid encapsulation rate [6] | SMILES | Relative amount of FVII protein (%) [5]
7 | 81% | 31 nM | 72.4 nm | 74.2 nm | 85% | CCCCCCC(CCCC)COC(=O)CCCCCCCCC(CCCCCCCCC(=O)OCC(CCCC)CCCCCC)OC(=O)OCCN(CC)CCN(CC)CC (centres unmarked) [Example 72, Bis(2-butyloctyl)10-(((2-((2-(diethylamino)ethyl)(ethyl)amino)ethoxy)carbonyl)oxy)nonadecanedioate] | 6%
8 | 74% |  | 69.2 nm | 67.1 nm | 88% | CCCCCCCCCCCC(=O)OCCN(CCOC(=O)OC(CCCCCC)CCCCCCCCC(=O)OCC(CCCC)CCCCCC)CCN(CC)CC (centres unmarked) [Example 86, 2-butyloctyl 6-(2-(dodecanoyloxy)ethyl)-3-ethyl-12-hexyl-10-oxo-9,11-dioxa-3,6-diazahenicosan-21-oate] | 15%
9 | 83% |  | 77.3 nm | 68.2 nm | 94% | CCCCCCCCC(CCCCCC)COC(=O)CCCCCCCCC(CCCCCC)OC(=O)OCCN(CCN(CC)CC)C(C)C (centres unmarked) [Example 89, 2-Hexyldecyl 3-ethyl-12-hexyl-6-isopropyl-10-oxo-9,11-dioxa-3,6-diazahenicosan-21-oate] | 8%
10 | 69% |  | 66.5 nm | 75.0 nm | 76% | CCCCCCCC/C=C\CCCCCCCC(=O)OCCN(CCOC(=O)OC(CCCCCC)CCCCCCCCC(=O)OCC(CCCC)CCCCCC)CCN(CC)CC (centres unmarked) [Example 91, 2-Butyloctyl 3-ethyl-12-hexyl-6-(2-(oleoyloxy)ethyl)-10-oxo-9,11-dioxa-3,6-diazahenicosan-21-oate] | 9%
11 | 78% |  | 68.1 nm | 70 nm | 70% | CCCCC/C=C\C/C=C\CCCCCCCCC(CCCCCCCC/C=C\C/C=C\CCCCC)OC(=O)OCCN(CCN(CC)CC)C(C)C [Example 42, 2-((2-(Diethylamino)ethyl)(isopropyl)amino)ethyl((6Z,9Z,28Z,31Z)-heptatriaconta-6,9,28,31-tetraen-19-yl)carbonate] | 9%
